Data set [1] has as its target T1, Human cKit Tyrosine Kinase Receptor (human cKit RTK-catalytic domain) (Homo sapiens, UniProt P10721).
T1 construct: human cKit RTK-catalytic domain; purchased Panvera-Invitrogen P3080
The experiment in a line: DELFIA cKit Tyrosine Kinase Assay (cell-free). In kind it is biochemical. To be noted: cell-free DELFIA, 25 ng cKit TKR, 150 μM ATP, 20 minutes at 30° C.; read-out: IC50. The protocol: The compounds of the invention were tested with a dedicated cell-free kinase assay for the evaluation of the inhibiting activity on tyrosine kinases.
In more detail, the assay was a DELFIA™ (Dissociation Enhanced Time-Resolved Fluorometric Assay) Tyrosine Kinase Assay™ (PerkinElmer), a highly sensitive, reproducible ELISA assay that allows to evaluate the activity of a tyrosine kinase.
Human cKit Tyrosine Kinase Receptor (human cKit RTK-catalytic domain), commercially available from Panvera-Invitrogen (Cat. N^o. P3080), was used as the tyrosine kinase.
After 1 hour incubation at room temperature and three washings with 1×DELFIA Wash Buffer (PerkinElmer), the phosphotyrosine residues of the acceptor were detected with an europium-labelled anti-phosphotyrosine monoclonal antibody (DELFIA Eu-N1 labelled anti-phosphotyrosine antibody PT66, PerkinElmer) and, after a further hour incubation at room temperature and three washings with 1×DELFIA Wash Buffer, overall phosphorylation of biotinylated polyGAT was determined by addition of Enhancement Solution (PerkinElmer) and fluorimetric analysis of the plates (α-Fusion FP HT, PerkinElmer) in the “Time-Resolved Fluorescence” mode.

Data set [2] relates to Ret/MEN2A (mutC634R and mutC634W). To be noted: cited from earlier work.
Another data set deals with PDGF-R. As to conditions: cited from earlier work.
The next data set addresses FGF-R3 (Homo sapiens, UniProt P22607). To be noted: cited from earlier work.
The subject of the next data set is Kit (c-Kit and mutΔ559). To be noted: cited from earlier work.
The test system of data set [3] is NIH3T3^MEN2A(C634R) cells. Nature of the data set: Reversal of morphologically transformed phenotype, contrast phase microscopy, 24 h. In kind it is cell-based, murine. To be noted: 24 h treatment; for minimal effective concentration: Mus musculus, NIH3T3MEN2A, read-out: Morphology a 24 h: concentration from which reversal was observed. The protocol:
(§1) NIH3T3 Murine fibroblasts and the transfected line NIH3T3^MEN2A(C634R) were treated with increasing concentrations of the compounds of the invention for 72 h. Survival curves were obtained by Coulter Counter cell count. IC50s calculated from said curves are reported in Table 9: the higher sensitivity of the oncoprotein-expressing cell line is evident. The reversal of the morphologically transformed phenotype of NIH3T3^MEN2A (C634R) cells in the presence of the compounds of the invention was evaluated by contrast phase microscopy after 24 h treatment and photographically documented.

Data set [4] has as its system NIH3T3 cells transformed by oncoprotein Ret/ptc1. To be noted: cited from earlier work.
A further data set deals with FGF-R1 (Homo sapiens, UniProt P11362). As to conditions: cited from earlier work.
The target in another data set is Ret/MEN2B (mutM918T) (Homo sapiens, UniProt P07949, M918T). As to conditions: cited from earlier work.
Data set [5] has as its system NIH3T3^MEN2A(C634R) cells. Nature of the data set: Survival curves by Coulter Counter cell count, 72 h. Format: cell-based, murine. As to conditions: Mus musculus, NIH3T3MEN2A, 72 h treatment, read-out: Cont at 72 h IC50. The protocol: as §1
Data set [6] addresses T2, human Ret TKR-catalytic domain (Homo sapiens, UniProt P07949).
T2 construct: human Ret TKR-catalytic domain; purchased ProQinase
T2 sequence (P07949 724-1016 limits assumed): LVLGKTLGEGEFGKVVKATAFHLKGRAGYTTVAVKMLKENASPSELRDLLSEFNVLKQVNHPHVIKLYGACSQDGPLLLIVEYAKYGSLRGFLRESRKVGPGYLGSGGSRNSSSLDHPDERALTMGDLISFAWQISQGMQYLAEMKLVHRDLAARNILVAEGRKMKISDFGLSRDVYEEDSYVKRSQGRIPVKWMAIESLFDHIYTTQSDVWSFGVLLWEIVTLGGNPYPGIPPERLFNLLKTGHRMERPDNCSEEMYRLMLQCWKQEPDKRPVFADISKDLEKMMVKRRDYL
The experiment in a line: DELFIA Ret Kinase Assay (cell-free). In kind it is biochemical. As to conditions: cell-free DELFIA, 50 ng Ret TKR, 3 μM ATP, 10 min. at 30° C.; read-out: IC50. The procedure: In order to evidence and quantify inhibitory activity on Ret tyrosine kinase, the most representative compounds of the invention were tested with a dedicated DELFIA kinase assay, using a human tyrosine-kinase receptor (Ret TKR) recombinant form (human Ret TKR-catalytic domain) available from ProQinase as the tyrosine kinase.
After 10 min. incubation at 30° C., the kinase reactions were worked up as in the DELFIA cKit Kinase Assay.

In data set [7] the test system is cells transformed by Ret/MEN2A, Ret/MEN2B, Met, PDGF-R, FGF-R1, FGF-R3 and Kit. As to conditions: cited from earlier work.
Data set [8] relates to tyrosine kinases Ret/MEN2A, Ret/MEN2B, Met, PDGF-R, FGF-R1, FGF-R3 and Kit. To be noted: cited from earlier work.
For a further data set, the target named is Met (Homo sapiens, UniProt P08581). To be noted: cited from earlier work.

The values that follow come from patent publication US20050209195A1, “Indolinone derivatives” (Cell Therapeutics Europe S.r.I, priority 2004, published 2005).

T1 sequence (P10721 589-937 limits assumed): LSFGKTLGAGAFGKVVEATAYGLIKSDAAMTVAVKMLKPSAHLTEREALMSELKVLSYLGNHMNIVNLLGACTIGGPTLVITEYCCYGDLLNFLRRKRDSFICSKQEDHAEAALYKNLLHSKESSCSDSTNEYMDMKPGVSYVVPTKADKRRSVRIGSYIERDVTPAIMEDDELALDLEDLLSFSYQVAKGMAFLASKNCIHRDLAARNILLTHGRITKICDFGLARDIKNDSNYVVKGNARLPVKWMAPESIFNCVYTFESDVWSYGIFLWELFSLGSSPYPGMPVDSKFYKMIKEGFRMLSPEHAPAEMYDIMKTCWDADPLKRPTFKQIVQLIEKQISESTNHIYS
Met, sequence (P08581 25-1390): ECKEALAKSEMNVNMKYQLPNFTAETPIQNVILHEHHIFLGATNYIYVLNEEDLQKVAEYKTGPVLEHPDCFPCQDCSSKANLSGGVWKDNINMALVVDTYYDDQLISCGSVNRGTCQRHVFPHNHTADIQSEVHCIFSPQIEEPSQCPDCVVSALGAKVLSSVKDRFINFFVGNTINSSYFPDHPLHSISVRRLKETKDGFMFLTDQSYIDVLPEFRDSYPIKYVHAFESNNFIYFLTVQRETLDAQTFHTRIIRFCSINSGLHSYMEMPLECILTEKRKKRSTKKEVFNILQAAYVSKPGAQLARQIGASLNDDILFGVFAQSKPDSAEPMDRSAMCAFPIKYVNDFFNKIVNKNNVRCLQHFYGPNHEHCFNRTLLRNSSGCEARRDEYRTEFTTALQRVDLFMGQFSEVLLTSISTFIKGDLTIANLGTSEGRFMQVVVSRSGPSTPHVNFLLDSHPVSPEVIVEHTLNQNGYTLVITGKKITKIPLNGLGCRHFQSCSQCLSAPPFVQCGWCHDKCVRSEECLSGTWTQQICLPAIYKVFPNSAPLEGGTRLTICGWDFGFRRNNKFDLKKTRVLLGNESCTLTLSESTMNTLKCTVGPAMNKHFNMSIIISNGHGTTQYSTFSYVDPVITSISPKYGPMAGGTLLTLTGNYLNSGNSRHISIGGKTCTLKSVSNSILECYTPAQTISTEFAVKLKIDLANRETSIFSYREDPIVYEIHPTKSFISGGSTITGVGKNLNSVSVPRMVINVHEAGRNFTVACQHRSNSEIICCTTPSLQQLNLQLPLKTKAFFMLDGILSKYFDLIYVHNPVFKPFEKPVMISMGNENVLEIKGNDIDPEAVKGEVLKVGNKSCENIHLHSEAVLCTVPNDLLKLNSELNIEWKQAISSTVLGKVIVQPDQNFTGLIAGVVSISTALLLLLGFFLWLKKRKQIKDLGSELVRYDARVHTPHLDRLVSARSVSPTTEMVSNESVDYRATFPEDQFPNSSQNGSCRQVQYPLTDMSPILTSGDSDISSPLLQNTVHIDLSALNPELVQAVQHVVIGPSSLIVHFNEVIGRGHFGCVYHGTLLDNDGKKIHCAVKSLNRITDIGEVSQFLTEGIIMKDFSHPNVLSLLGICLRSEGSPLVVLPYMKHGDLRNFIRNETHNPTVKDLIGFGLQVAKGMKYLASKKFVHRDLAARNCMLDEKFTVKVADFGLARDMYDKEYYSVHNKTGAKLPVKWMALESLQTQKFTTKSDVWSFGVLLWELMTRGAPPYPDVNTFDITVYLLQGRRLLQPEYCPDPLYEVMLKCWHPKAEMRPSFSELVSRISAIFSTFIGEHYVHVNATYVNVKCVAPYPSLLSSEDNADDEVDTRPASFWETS
FGF-R3, sequence (P22607 23-806, species assumed): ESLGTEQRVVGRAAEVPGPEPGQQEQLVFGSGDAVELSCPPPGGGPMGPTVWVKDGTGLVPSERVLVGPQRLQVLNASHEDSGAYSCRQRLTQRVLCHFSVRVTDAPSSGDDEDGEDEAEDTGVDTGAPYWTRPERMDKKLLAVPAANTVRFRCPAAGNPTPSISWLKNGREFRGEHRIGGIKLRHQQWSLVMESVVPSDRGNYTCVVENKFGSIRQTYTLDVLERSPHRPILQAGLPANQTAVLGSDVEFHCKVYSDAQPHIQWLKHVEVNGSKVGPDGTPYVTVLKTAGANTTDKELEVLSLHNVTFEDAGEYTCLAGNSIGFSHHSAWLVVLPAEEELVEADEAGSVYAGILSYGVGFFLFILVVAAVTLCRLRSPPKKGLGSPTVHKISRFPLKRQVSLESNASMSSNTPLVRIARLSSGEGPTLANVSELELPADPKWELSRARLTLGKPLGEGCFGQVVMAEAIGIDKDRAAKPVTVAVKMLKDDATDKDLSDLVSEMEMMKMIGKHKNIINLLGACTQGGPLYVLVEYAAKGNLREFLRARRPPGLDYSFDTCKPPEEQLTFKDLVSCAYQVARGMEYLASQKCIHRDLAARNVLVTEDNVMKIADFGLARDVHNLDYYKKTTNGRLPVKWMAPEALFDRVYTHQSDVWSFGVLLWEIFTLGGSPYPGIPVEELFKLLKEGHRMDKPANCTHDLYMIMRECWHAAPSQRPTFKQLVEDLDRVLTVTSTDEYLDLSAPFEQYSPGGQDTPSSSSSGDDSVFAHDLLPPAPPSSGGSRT
FGF-R1, sequence (P11362 22-822, species assumed): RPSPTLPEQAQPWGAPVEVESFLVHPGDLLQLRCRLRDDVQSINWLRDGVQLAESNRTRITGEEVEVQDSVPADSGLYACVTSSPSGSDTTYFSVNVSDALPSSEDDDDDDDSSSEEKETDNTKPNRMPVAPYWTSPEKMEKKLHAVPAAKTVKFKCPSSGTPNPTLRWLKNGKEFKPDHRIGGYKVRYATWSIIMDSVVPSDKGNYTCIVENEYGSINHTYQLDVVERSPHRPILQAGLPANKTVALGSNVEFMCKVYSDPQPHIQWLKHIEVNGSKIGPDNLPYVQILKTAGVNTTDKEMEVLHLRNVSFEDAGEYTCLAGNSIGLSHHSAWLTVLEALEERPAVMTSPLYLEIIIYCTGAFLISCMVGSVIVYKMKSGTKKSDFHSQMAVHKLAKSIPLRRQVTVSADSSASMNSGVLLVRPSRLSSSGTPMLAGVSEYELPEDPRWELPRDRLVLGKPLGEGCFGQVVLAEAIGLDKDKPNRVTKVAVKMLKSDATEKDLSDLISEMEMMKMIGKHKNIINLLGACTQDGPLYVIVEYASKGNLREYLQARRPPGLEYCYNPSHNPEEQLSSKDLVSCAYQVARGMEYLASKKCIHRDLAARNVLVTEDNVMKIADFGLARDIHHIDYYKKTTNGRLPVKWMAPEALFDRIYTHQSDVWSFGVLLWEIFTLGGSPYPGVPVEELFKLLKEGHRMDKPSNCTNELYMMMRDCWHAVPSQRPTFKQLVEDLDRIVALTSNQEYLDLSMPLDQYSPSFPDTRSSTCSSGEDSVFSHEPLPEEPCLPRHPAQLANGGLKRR
Ret/MEN2B (mutM918T), sequence (P07949 29-1114 M918T): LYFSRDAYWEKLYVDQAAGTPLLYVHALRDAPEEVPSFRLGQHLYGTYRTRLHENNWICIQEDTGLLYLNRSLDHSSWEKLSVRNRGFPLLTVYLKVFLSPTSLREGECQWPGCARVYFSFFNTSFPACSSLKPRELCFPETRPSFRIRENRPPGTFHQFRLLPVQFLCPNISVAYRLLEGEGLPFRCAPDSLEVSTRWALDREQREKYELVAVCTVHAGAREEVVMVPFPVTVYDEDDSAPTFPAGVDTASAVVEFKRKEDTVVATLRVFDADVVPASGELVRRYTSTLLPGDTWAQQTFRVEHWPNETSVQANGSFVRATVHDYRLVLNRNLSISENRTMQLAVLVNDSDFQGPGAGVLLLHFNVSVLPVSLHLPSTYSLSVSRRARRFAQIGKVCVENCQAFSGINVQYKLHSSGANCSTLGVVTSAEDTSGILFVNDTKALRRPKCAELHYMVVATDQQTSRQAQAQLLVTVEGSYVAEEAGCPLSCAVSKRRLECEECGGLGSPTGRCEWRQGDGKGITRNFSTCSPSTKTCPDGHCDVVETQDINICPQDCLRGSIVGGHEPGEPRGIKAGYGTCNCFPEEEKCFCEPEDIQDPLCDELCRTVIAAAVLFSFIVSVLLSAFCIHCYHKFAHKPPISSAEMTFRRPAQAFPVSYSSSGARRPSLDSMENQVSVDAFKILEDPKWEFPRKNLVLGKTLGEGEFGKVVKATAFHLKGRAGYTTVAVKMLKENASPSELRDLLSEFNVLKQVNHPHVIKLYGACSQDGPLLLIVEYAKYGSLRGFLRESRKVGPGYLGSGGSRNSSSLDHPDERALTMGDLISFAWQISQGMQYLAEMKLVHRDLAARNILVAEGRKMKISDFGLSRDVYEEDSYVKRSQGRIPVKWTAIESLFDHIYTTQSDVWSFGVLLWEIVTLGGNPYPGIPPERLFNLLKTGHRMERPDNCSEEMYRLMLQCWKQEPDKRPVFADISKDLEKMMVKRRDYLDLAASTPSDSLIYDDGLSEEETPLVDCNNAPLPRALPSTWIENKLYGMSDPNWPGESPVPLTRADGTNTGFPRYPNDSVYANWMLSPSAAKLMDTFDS

The IC50 is the concentration needed to halve the response being measured. For `COc1cc2c(cc1OC)/C(=C\c1ccc(O)cc1)C(=O)N2` [(E)-1,3-dihydro-4-hydroxybenzylidene-5,6-dimethoxy-1H-indol-2-one], the IC50 is 2.37 ± 0.68 µM in data set [1], 3.6 ± 1.6 µM in [5] and 3.67 µM in data set [6]. Besides, the inhibition of self-phosphorylation entry was “fully inhibiting” in data set [2]; “fully inhibiting” with PDGF-R; “fully inhibiting” at FGF-R3; “fully inhibiting” with Kit (c-Kit and mutΔ559); “fully inhibiting” at FGF-R1; “fully inhibiting” at Ret/MEN2B (mutM918T). Moreover, the inhibition of self-phosphorylation entry on Met is given as “fully inhibiting”. Moreover, the “Morphology a 24 h” value in data set [3] is on record as “REVERSAL”. For the same compound, in data set [3], the minimal effective concentration was at least 6 µM. In addition, the “restoring the normal phenotype in transformed cells” value in data set [4] is reported as “restoring the normal phenotype”. In addition, the “restoring the phenotype of transformed cells” value in data set [7] is “restoring the phenotype of cells transformed by them”. Besides, the “down regulation of tyrosine kinase expression” value in data set [8] is listed as “down regulating their expression”.

As a reminder, the melting point is the temperature of the solid-liquid transition. `COc1cc2c(cc1OC)/C(=C\c1ccc(OC(=O)N3CCN(C)CC3)cc1)C(=O)N2` [Example B.1, (E)-4-methyl-piperazine-1-carboxylic Acid, 4-(5,6-dimethoxy-2-oxo-1,2-dihydro-indol-3-ylidenemethyl)phenyl Ester] returned a melting point of 198 to 200 °C. The IC50 in data set [1] is 4.46 µM. Also, in data set [3], the “Morphology a 24 h” value is given as “REVERSAL” and the minimal effective concentration is at least 10 µM. Besides, the IC50 in data set [5] came to 2.8 ± 0.5 µM. The half-inhibitory concentration (IC50) in [6] worked out at 13.3 µM.

The compound `COc1cc2c(cc1OC)/C(=C\c1ccc(OP(=O)(O)O)cc1)C(=O)N2` [Example C.1, (E)-4-(5,6-dimethoxy-2-oxo-1,2-dihydro-indol-3-ylidenemethyl)phenyl Phosphoric Acid] gave a melting point of 218 to 220 °C. Further, the IC50 in data set [1] is 51.8 µM. Also, in [3], the “Morphology a 24 h” value was “REVERSAL” and the minimal effective concentration is at least 10 µM. For the same compound, the IC50 in [5] came to 3.9 ± 0.25 µM. Moreover, in data set [6], the IC50 turned out to be 2.61 µM.

The compound `COc1cc2c(cc1OC)/C(=C\c1ccc(OC(=O)N3CCC(N4CCCCC4)CC3)cc1)C(=O)N2` [B.5, 4-(1′-Piperidinyl)-1-piperidinecarboxylic Acid, (E)-4-(5,6-dimethoxy-2-oxo-1,2-dihydro-indol-3-ylidenemethyl)phenyl Ester] yielded a melting point of 235 to 237 °C. Moreover, in data set [1], the half-inhibitory concentration (IC50) came out at 4.68 µM. In addition, in data set [3], the “Morphology a 24 h” value is on record as “REVERSAL” and the minimal effective concentration is at least 5 µM. In addition, the half-maximal inhibitory concentration (IC50) in data set [5] was 2 ± 0.7 µM. Further, in data set [6], the 50% inhibitory concentration (IC50) came out at 2.17 µM.

Compound `COc1ccc(OC(=O)Oc2ccc(/C=C3/C(=O)Nc4cc(OC)c(OC)cc43)cc2)cc1` [Example H.1, (E)-4-(5,6-dimethoxy-2-oxo-1,2-dihydro-indol-3-ylidenemethyl)phenyl, 4-methoxyphenyl Carbonate] gave a melting point of 165 to 167 °C. The half-maximal inhibitory concentration (IC50) in [1] was 1.19 µM. For the same compound, in data set [3], the “Morphology a 24 h” value was “REVERSAL” and the minimal effective concentration was at least 10 µM. For the same compound, in data set [5], the IC50 came out at 3.3 ± 0.03 µM. Besides, the IC50 in data set [6] is 4.43 µM.

In the case of `COc1cc2c(cc1OC)/C(=C\c1ccc(OC(=O)N3CCN(CCO)CC3)cc1)C(=O)N2` [B.3, 4-(2-Hydroxyethyl)piperazine-1-carboxylic Acid, (E)-4-(5,6-dimethoxy-2-oxo-1,2-dihydro-indol-3-ylidenemethyl)phenyl Ester], the melting point lay within 217 to 220 °C. Further, the IC50 in [1] amounted to 6.74 µM. The “Morphology a 24 h” value in data set [3] is reported as “REVERSAL”. The half-inhibitory concentration (IC50) in data set [5] stood at 3.1 ± 1.3 µM. Besides, the IC50 in [6] is 1.77 µM.
